The source of these data is patent EP0301861A1, “Cell proliferation inhibitors” (Takeda Chemical Industries, Ltd., priority 1987, dated 1989).

Experiment [1] concerns human umbilical venous endothelial cells. As to the kind of experiment: Inhibition of proliferation of human umbilical venous endothelial cells (MTT). In kind it is cell-based. Conditions: Endothelial cell, 72 h, rFGF 2 ng/ml, 3 days of incubation, OD₅₉₀, read-out: IC₅₀. As for the experimental part:
Experiment 3 [Evaluation of inhibition of proliferation of human umbilical venous endothelial cells]
The human vascular endothelial cells were obtained by subculture of the cells, which had been obtained from human umbilical vein by perfusion with tripsin solution, in the culture medium which had been prepared by addition of 2.5% bovine fetal serum and 2.0 ng/ml of human recombinant fibroblast growth factor (abbreviated as rFGF hereinafter; prepared in Biotechnology Institute of our company) to GIT medium (Daigo Eiyou Kagaku).
A hundred µl of the suspension of 2 x 10³ human vascular endothelial cells was introduced to a 96-well culture plate (Nunc, 1-67008) and incubated in a gas-controlled thermostat. On the next day rFGF and 100 µl of a medium containing different concentrations of the test substance were added, so that the final concentration of rFGF might be 2 ng/ml. The test substance was dissolved in dimethylsufoxide (DMSO hereinafter) solution, and the resultant solution was diluted so that the final DMSO concentration might be 0.25% or less. After 3 days of incubation, the culture medium containing the test substance was aspirated off, 100 µl of 1 mg/ml MTT solution (3-(4,5-dimethyl-2-thiazolyl)-2,5-diphenyl-2H-tetrazolium bromide dissolved in the culture medium) was added, and the mixture was kept warm for 4 hours. Then 100 µl of 10% SDS solution (aqueous solution of sodium dodecylsulfate) was added and kept warm for 5 - 6 hours, so that the cells and MTT pigment were solubilized, and the OD₅₉₀ value was determined by spectrophotometer. The OD value of the control sample containing no test substance was taken as 100%, and the endothelial cell growth-inhibitory activity of the test substance was compared on the basis of the IC₅₀ value, the concentration of a compound at which 50% OD value is observed.

For experiment [2], the target named is T1, 5-lipoxygenase from guinea pig polymorphonuclear leukocytes (Cavia porcellus, UniProt A0A286X958).
T1 construct: from guinea pig peritoneal macrophage; from tissue
T1 sequence (A0A286X958 1-674): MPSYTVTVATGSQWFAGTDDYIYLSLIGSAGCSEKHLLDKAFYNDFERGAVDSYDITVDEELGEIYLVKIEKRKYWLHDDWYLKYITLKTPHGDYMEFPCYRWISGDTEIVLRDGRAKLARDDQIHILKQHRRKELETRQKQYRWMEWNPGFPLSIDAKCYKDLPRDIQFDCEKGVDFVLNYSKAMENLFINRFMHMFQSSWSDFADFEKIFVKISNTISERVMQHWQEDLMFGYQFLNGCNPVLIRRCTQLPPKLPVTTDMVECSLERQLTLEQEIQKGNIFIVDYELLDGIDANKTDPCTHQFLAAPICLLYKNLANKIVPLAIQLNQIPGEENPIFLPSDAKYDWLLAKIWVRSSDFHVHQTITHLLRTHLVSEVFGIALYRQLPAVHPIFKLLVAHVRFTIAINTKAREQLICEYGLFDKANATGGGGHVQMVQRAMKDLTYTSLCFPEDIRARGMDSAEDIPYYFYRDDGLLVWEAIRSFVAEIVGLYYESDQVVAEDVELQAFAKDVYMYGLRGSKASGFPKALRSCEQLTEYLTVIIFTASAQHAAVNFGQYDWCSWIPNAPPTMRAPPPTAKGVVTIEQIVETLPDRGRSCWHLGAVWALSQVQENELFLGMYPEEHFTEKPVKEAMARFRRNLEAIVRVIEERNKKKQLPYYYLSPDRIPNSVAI
Kind of experiment: Inhibition of 5-lipoxygenase. The format is biochemical. Conditions: 10⁻⁵ M; 25µM [1-¹⁴C]arachidonic acid as substrate, 25°C. As for the experimental part: According to the routine method these ingredients were mixed and compressed by a tableting machine. Experiment 1 [Inhibition (10⁻⁵ M) of 5-lipoxygenase from guinea pig polymorphonuclear leukocytes]
5-Lipoxygenase used was the enzyme preparation prepared from guinea pig […]. For determination of the activity of lypoxygenase 25µM [1-¹⁴C]arachidonic acid (5 x 10⁴ cpm) as the substrate, 50 mM phosphate buffer solution (pH 7.4), 2 mM CaCl₂, 2 mM ATP, and a reaction mixture containing the enzyme (200µl) were used. After preincubation at 25°C for 2 minutes, [1-¹⁴C]arachidonic acid (5 x 10⁴ cpm) was added, and allowed to react at 25°C for 3 minutes; the resultant mixture was made acidic, and arachidonic acid and its metabolites were extracted with ether. Radioactivity of the ether layer was determined by silica gel thin layer chromatography using a mixture of petroleum ether:ethylether:acetic acid (15:85:0.1) as the eluant and the elution was performed at -10°C. After elution, the thin layer plate was subjected to autoradiography, the radioactive fractions were scraped out, and the radioactivity of the product was determined by counting. The agent was added two minutes before the beginning of the reaction.

Experiment [3] concerns IL-2-dependent cells (NKC-3). Kind of experiment: Inhibition of growth of IL-2-dependent cells (NKC-3) (MTT). In kind it is cell-based. As to conditions: NKC-3 cells with IL-2, 37°C for 20 hours, absorbance at 590 nm, read-out: IC₅₀. As for the experimental part: Experiment 4 [Evaluation of inhibition of growth of IL-2-dependent cells (NKC-3)]
To each well of a 96-well microplate, 50 µl of NKC-3 cells (4 x 10⁵ cells/well), 20 µl of IL-2 solution (0.067 U/ml), and 40 µl of the test substance (DMSO solution) were added, which was incubated at 37°C for 20 hours (culture medium: RPMI1640-20%ECS). To each well 20 µl of MTT solution was added,which was kept at 37°C for 4 hours. Then 100 µl of 10% SDS solution was added to each well, which was kept still at 37°C overnight so that the cells and MTT pigment were solubilized, and the absorbance at 590 nm was measured by spectrophotometer. […] Compound No. IC₅₀ (M) 5 4.1 x 10⁻⁵

Converted amounts (≈) assume the structure as drawn.

With `CC1=C(C(CCCCC(=O)NO)c2cccs2)C(=O)c2ccccc2C1=O` (stereo not shown) [Compound No.13], the IC50 in experiment [1] was less than 0.08 µg/mL. Take `CC1=C(C)C(=O)C(C(CCCCCC(=O)NO)c2ccc(C)cc2)=C(C)C1=O` (stereo not shown) [compound 7]: in experiment [1], the IC50 came out at 1.25 µg/mL (≈ 3.26 µM).

As for `CC1=C(C)C(=O)C(C(CCC(=O)NO)c2ccccc2)=C(C)C1=O` (stereo not shown) [Compound No.1], the IC50 in experiment [1] is 10 µg/mL (≈ 30.5 µM). For the compound `COC1=C(OC)C(=O)C(C(CCCC(=O)NO)c2ccccc2)=C(C)C1=O` (stereo not shown) [compound 17], the IC50 in experiment [1] is 20 µg/mL (≈ 53.6 µM). For `CC1=C(C(CCCCC(=O)NO)c2ccccc2)C(=O)c2ccccc2C1=O` (stereo not shown) [compound 12], the IC50 in experiment [1] stood at 0.08 µg/mL (≈ 0.212 µM). Take `COC1=C(OC)C(=O)C(C(CCCCCC(=O)NO)c2ccccc2)=C(C)C1=O` (stereo not shown) [compound 16]: in experiment [1], the IC50 was found to be 1.25 µg/mL (≈ 3.11 µM). Same read-out and setting: in the case of `CC1=C(C)C(=O)C(C(CCCCCC(=O)NO)c2ccc(Cl)cc2)=C(C)C1=O` (stereo not shown) [compound 9] it was 1.25 µg/mL (≈ 3.09 µM); in that of `CC1=C(C)C(=O)C(C(CCCCCCC(=O)NO)c2ccccc2)=C(C)C1=O` (stereo not shown) [compound 10], 25 µg/mL (≈ 65.2 µM); in that of `CC1=C(C)C(=O)C(C(CCCCC(=O)NO)c2ccccc2)=C(C)C1=O` (stereo not shown) [compound 2], 0.63 µg/mL (≈ 1.77 µM). With `COc1ccc(C(CCCCCC(=O)NO)C2=C(C)C(=O)C(C)=C(C)C2=O)cc1` (stereo not shown) [Compound No.8, 7-(4-methoxyphenyl)-7-(3,5,6-trimethyl-1,4-benzoquinon-2-yl)-heptanohydroxamic acid], the IC50 in experiment [1] was determined as 0.63 µg/mL (≈ 1.58 µM). Moreover, in experiment [2], the “Inhibitory activity (%)” value was determined as 83.8%. `CC1=C(C(CCCCCCC(=O)NO)c2ccccc2)C(=O)c2ccccc2C1=O` (stereo not shown) [compound 15]: in experiment [1], the IC50 is less than 0.63 µg/mL. Consider `CC1=C(C)C(=O)C(C(CCCCCC(=O)NO)c2ccc(F)cc2)=C(C)C1=O` (stereo not shown) [Compound No.6, 7-(4-fluorophenyl)-7-(3,5,6-trimethyl-1,4-benzoquinon-2-yl)-heptanohydroxamic acid], for which, in experiment [1], the IC50 is 1.25 µg/mL (≈ 3.23 µM). The “Inhibitory activity (%)” value in experiment [2] was determined as 79.3%. As to `CC1=C(C(CCCC(=O)NO)c2ccccc2)C(=O)c2ccccc2C1=O` (stereo not shown) [compound 11], the IC50 in experiment [1] turned out to be 5 µg/mL (≈ 13.8 µM). Take `CC1=C(C(CCCCCC(=O)NO)c2ccc(F)cc2)C(=O)c2ccccc2C1=O` (stereo not shown) [compound 14]: in experiment [1], the IC50 was less than 0.63 µg/mL. Also, the “Inhibitory activity (%)” value in experiment [2] turned out to be 89.7%. For the compound `COc1ccc(C(CCCCC(=O)NO)C2=C(C)C(=O)C(C)=C(C)C2=O)cc1` (stereo not shown) [compound 4], the IC50 in experiment [1] was determined as 0.63 µg/mL (≈ 1.63 µM). In the case of `CC1=C(C)C(=O)C(C(CCCCCC(=O)NO)c2ccccc2)=C(C)C1=O` (stereo not shown) [Compound No.5], the IC50 came to 41 µM in experiment [3] and 0.63 µg/mL (≈ 1.71 µM) in experiment [1]. In addition, in experiment [2], the “Inhibitory activity (%)” value turned out to be 74.6%.

For the compound `CC1=C(C)C(=O)C(C(CCCCC(=O)NO)c2ccc(F)cc2)=C(C)C1=O` (stereo not shown) [compound 3], the IC50 in experiment [1] was found to be 1.25 µg/mL (≈ 3.35 µM).
